Where “and” joins values, the source holds several entries; their conditions need not be identical. Equal values may be shown once.
tested on: epidermic stratum corneum cells; experiment: Tests for the ability to produce laminin 5 (culture of epidermic stratum corneum cells, sandwich ELISA); format: cell-based, human
Experimental: Epidermic stratum corneum cells were isolated from the human preputium and cultured in an epidermic cell growth medium (KGM) having a low calcium concentration. To this culture medium were added bovine pituitary extract and EGF. After the cells were cultured in KGM up to the fourth generation, and treated with trypsin and EDTA to suspend adherent cells. Then, the culture was filtered to remove cell aggregates and thereby obtain a homogeneous cell suspension. The cells were collected by centrifugation and resuspended in DMEM-F12 (2:1)-0.1% BSA so as to give a cell density of 8×10^4 per ml. 0.5 ml each of this cell suspension was added to 0.5 ml of the same medium containing a twofold concentration of each test sample. Using a 24-well plate, incubation was carried out at 37° C. for 24 hours. After completion of the incubation, the culture supernatant was transferred to an Eppendorf tube and centrifuged at 15,000 rpm for 5 minutes. The supernatant was transferred to a new tube and stored at−20° C. till the day for the determination of laminin 5. In order to solubilize laminin 5 in the cells and bound to the culture plastics, a tris-HCl buffer (pH 7.4) containing various surfactants was added to each well and allowed to stand at −20° C. overnight. On the following day, the mixture was ultrasonicated and frozen again. On the following day, the mixture was thawed again and centrifuged at 15,000 rpm for 5 minutes. The supernatant was transferred to a tube and stored at −20° C. till the day for the determination of laminin 5.
Laminin 5 present in the culture supernatant and the cell layer was determined by the sandwich ELISA method. A monoclonal antibody (BM165) to the laminin α3 chain of laminin 5 was attached to a solid layer of a 96-well ELISA plate. In order to measure laminin 5 in a sandwiched manner, a monoclonal antibody (6F12) to the laminin β3 chain was previously biotinized (b-6F12) and used as the other antibody. […] A sample was added to each of the wells in which a 3% gelatin-phosphate buffer solution containing b-6F12 had previously been placed. The final degree of dilution of the sample in the wells was 1/4 for the culture medium and 1/10 for the cell layer. After the antigen-antibody reaction was carried out at 37° C. for 2 hours, the wells were washed, and an avidin HRP (horseradish peroxidase) solution was added thereto and reacted for a period of 30 minutes to 1 hour. After washing, a solution of ABTS serving as a substrate for HRP was added thereto and the absorbance at 405 nm was measured with an ELISA plate reader. A calibration curve was constructed over a range of 0 to 40 ng/ml.
The yield of laminin 5 was expressed by the sum of the amount liberated into the culture medium and the amount remaining in the cell layer.

Row | Substance | Relative yield of laminin 5 based on control with no addition (%) Mean ± Standard deviation
1 | lysophosphatidic acid [LPA-C18: 1] | 225.4 ± 12.5% and 254.0 ± 8.7%
2 | lysophosphatidylcholine [LPC-C12: 0, reference compound] | 88.6 ± 5.1%
3 | lysophosphatidylcholine [LPC-C14: 0] | 100.8 ± 5.6%
4 | lysophosphatidylcholine [LPC-C16: 0] | 104.5 ± 3.3%
5 | lysophosphatidylcholine [LPC-C18: 0] | 112.4 ± 8.0%
6 | lysophosphatidylcholine [LPC-C18: 1] | 112.7 ± 6.7% and 147.4 ± 5.2%
7 | lysophosphatidylcholine [LPC-C18: 2] | 133.6 ± 1.3% and 174.0 ± 5.4%

Reference: patent US6544966B1, “Agents promoting laminin production in skin cells” (Shiseido Company, Ltd., priority 1998, dated 2003)
